Data on 20 compounds can be found in patent US9394297B2, “Amides as pim inhibitors” (AMGEN INC., priority 2012, dated 2016).

One test deals with Pim-2 (Homo sapiens (Human), UniProt Q9P1W9). In words: Pim-Mn enzyme assay (HTRF, 384-well), Pim-2. It counts as biochemical. The settings on record: Pim-2 enzyme 0.5 pM, ATP 1.5 μM, BAD (S112) 0.5 μM, HTRF, 22-point curve; read-out: Pim-2-Mn IC50 IP. Background: Time-resolved FRET reads energy transfer from a long-lived donor to a nearby acceptor.
A further test concerns KMS-12-BM cell lines. In words: KMS12 #2 flow cytometry assay (phospho-BAD Ser112). To be noted: KMS-12-BM cells, pBAD Ser112 by flow cytometry, 110 min with compound, read-out: KMS-12-Flow IC50 IP. It counts as cell-based.
The next test concerns the target Pim-1 (Homo sapiens (Human), UniProt P11309). In words: Pim-Mn enzyme assay (HTRF, 384-well), Pim-1. To be noted: Pim-1 enzyme 5 pM, ATP 1.5 μM, BAD (S112) 0.5 μM, HTRF, 22-point curve; read-out: Pim-1-Mn IC50 IP. It counts as biochemical.

Molecules are shown by their SMILES. Read-outs that look alike come from different tables or passages of the source.

Sequence of Pim-1 (P11309 whole entry): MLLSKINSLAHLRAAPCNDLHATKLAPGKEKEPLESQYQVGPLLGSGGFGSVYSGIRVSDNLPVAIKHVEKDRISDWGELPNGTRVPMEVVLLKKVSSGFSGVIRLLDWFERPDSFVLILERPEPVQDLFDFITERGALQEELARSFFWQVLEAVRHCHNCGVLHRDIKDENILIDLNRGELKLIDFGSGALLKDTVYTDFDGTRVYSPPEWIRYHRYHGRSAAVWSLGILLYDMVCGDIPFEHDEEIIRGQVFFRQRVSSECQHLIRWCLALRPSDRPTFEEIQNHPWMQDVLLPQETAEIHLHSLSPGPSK
Sequence of Pim-2 (Q9P1W9 whole entry): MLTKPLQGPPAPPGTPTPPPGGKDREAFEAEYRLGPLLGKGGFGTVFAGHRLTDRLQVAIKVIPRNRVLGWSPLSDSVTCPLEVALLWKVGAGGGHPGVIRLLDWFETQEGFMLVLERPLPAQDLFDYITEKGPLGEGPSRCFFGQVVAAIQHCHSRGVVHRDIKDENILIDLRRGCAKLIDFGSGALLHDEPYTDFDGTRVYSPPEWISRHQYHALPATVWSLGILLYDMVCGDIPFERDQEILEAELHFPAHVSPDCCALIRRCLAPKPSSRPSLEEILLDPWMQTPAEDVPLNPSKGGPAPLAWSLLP

Usually IC50 stands for the concentration that gives 50% inhibition. With `Cc1nc2cccc(-c3c[nH]c(C(N)=O)c3)c2nc1NC(C)(C)C` [Example 420, 4-(3-(tert-butylamino)-2-methyl-5-quinoxalinyl)-1H-pyrrole-2-carboxamide], the IC50 on Pim-2 is 0.0348 µM; with KMS-12-BM cell lines (Homo sapiens, 110 min), 9.12 µM; at Pim-1, 0.0265 µM.

With `Cc1nc2cccc(-c3cc4n(c3)C(=O)NC4)c2nc1NC(C)(C)C` [Example 421, 6-(3-(tert-butylamino)-2-methylquinoxalin-5-yl)-1H-pyrrolo[1,2-c]imidazol-3(2H)-one], the IC50 on Pim-2 worked out at 0.189 µM; in the test on KMS-12-BM cell lines (Homo sapiens, 110 min), 21.2 µM; at Pim-1 it was 0.086 µM.

As for `Cc1nc2cccc(-c3cc4n(c3)C(=O)NC4=O)c2nc1NC(C)(C)C` [Example 422, 6-(3-(tert-Butylamino)-2-methyl-5-quinoxalinyl)-1H-pyrrolo[1,2-c]imidazole-1,3(2H)-dione], the IC50 stood at 0.0371 µM on Pim-2; 2.61 µM in the test with KMS-12-BM cell lines (Homo sapiens, 110 min); 0.0123 µM on Pim-1.

For `Cc1nc2cccc(-c3cc4c(=O)[nH]ncc4[nH]3)c2nc1NC(C)(C)C` [Example 423, 2-(3-(tert-butylamino)-2-methylquinoxalin-5-yl)-1H-pyrrolo[2,3-d]pyridazin-4(5H)-one], the IC50 on Pim-2 stood at 0.00371 µM; with KMS-12-BM cell lines (Homo sapiens, 110 min), 0.378 µM; at Pim-1, 0.00544 µM.

For `Cc1nc2cccc(-c3cc4c([nH]3)CCNC4=O)c2nc1-c1ccccc1` [Example 424, 2-(2-Methyl-3-phenylquinoxalin-5-yl)-6,7-dihydro-1H-pyrrolo[3,2-c]pyridin-4(5H)-one], the 50% inhibitory concentration (IC50) on Pim-2 was 0.0821 µM; with KMS-12-BM cell lines (Homo sapiens, 110 min), above 40 µM; at Pim-1 it was 0.0824 µM.

For the compound `Cc1nc2cccc(-c3cc4c([nH]3)CCNC4=O)c2nc1Cl` [Example 425, 2-(3-Chloro-2-methylquinoxalin-5-yl)-6,7-dihydro-1H-pyrrolo[3,2-c]pyridin-4(5H)-one], the IC50 was 0.521 µM on Pim-2; above 40 µM with KMS-12-BM cell lines (Homo sapiens, 110 min); 0.392 µM on Pim-1.

Regarding `Cc1ccccc1-c1nc2c(-c3cc4c([nH]3)CCNC4=O)cccc2nc1C` [Example 426, 2-(2-Methyl-3-(o-tolyl)quinoxalin-5-yl)-6,7-dihydro-1H-pyrrolo[3,2-c]pyridin-4(5H)-one], the IC50 at Pim-2 was 0.127 µM; in the test with KMS-12-BM cell lines (Homo sapiens, 110 min) it was above 40 µM; at Pim-1 it was 0.0523 µM.

`Cc1nc2cccc(-c3cc4c([nH]3)CCNC4=O)c2nc1-c1ccccc1Cl` [Example 427, 2-(3-(2-Chlorophenyl)-2-methylquinoxalin-5-yl)-6,7-dihydro-1H-pyrrolo[3,2-c]pyridin-4(5H)-one]: the IC50 at Pim-2 is 0.082 µM; with KMS-12-BM cell lines (Homo sapiens, 110 min), above 40 µM; at Pim-1 it was 0.0233 µM.

On to `Cc1nc2cccc(-c3cc4c([nH]3)CCNC4=O)c2nc1-c1ccccc1F` [Example 428, 2-(3-(2-Fluorophenyl)-2-methylquinoxalin-5-yl)-6,7-dihydro-1H-pyrrolo[3,2-c]pyridin-4(5H)-one], for which the IC50 at Pim-2 is 0.0474 µM; with KMS-12-BM cell lines (Homo sapiens, 110 min) it was above 40 µM; at Pim-1, 0.0399 µM.

As to `Cc1nc2cccc(-c3cc4c([nH]3)CCNC4=O)c2nc1-c1ccccn1` [Example 429, 2-(2-Methyl-3-(pyridin-2-yl)quinoxalin-5-yl)-6,7-dihydro-1H-pyrrolo[3,2-c]pyridin-4(5H)-one], the IC50 at Pim-2 stood at 0.167 µM; with KMS-12-BM cell lines (Homo sapiens, 110 min), 8.73 µM; on Pim-1 it was 0.212 µM.

On to `Cc1cccnc1-c1nc2c(-c3cc4c([nH]3)CCNC4=O)cccc2nc1C` [Example 430, 2-(2-Methyl-3-(3-methylpyridin-2-yl)quinoxalin-5-yl)-6,7-dihydro-1H-pyrrolo[3,2-c]pyridin-4(5H)-one], for which the IC50 at Pim-2 was determined as 0.257 µM; in the test on KMS-12-BM cell lines (Homo sapiens, 110 min), 24.8 µM; on Pim-1, 0.2 µM.

For `Cc1nc2cccc(-c3cc4c([nH]3)CCNC4=O)c2nc1-c1ccoc1` [Example 431, 2-(3-(Furan-3-yl)-2-methylquinoxalin-5-yl)-6,7-dihydro-1H-pyrrolo[3,2-c]pyridin-4(5H)-one], the IC50 was 0.0619 µM at Pim-2; 5.06 µM in the test with KMS-12-BM cell lines (Homo sapiens, 110 min); 0.0673 µM on Pim-1.

With `Cc1nc2cccc(-c3cc4c([nH]3)CCNC4=O)c2nc1-c1nccn1C` [Example 432, 2-(2-Methyl-3-(1-methyl-1H-imidazol-2-yl)quinoxalin-5-yl)-6,7-dihydro-1H-pyrrolo[3,2-c]pyridin-4(5H)-one], the IC50 at Pim-2 is 0.244 µM; with KMS-12-BM cell lines (Homo sapiens, 110 min) it was above 40 µM; at Pim-1, 0.413 µM.

As for `Cc1nc2cccc(-c3cc4c([nH]3)CCNC4=O)c2nc1-c1ccoc1C` [Example 433, 2-(2-Methyl-3-(2-methylfuran-3-yl)quinoxalin-5-yl)-6,7-dihydro-1H-pyrrolo[3,2-c]pyridin-4(5H)-one], the IC50 at Pim-2 worked out at 0.0409 µM; with KMS-12-BM cell lines (Homo sapiens, 110 min), 8.4 µM; at Pim-1, 0.0309 µM.

With `Cc1nc2cccc(-c3cc4c([nH]3)CCNC4=O)c2nc1N[C@H]1C[C@@H](NC(=O)OC(C)(C)C)C1` [Example 434, tert-butyl ((1s,3s)-3-((3-methyl-8-(4-oxo-4,5,6,7-tetrahydro-1H-pyrrolo[3,2-c]pyridin-2-yl)quinoxalin-2-yl)amino)cyclobutyl)carbamate], the values for the concentration for half-maximal inhibition (IC50) at Pim-2, in the test with KMS-12-BM cell lines and on Pim-1 were 0.0172 µM, 1.31 µM and 0.0181 µM, respectively.

For `Cc1nc2cccc(-c3cc4c([nH]3)CCNC4=O)c2nc1N[C@H]1C[C@@H](NCCS(C)(=O)=O)C1` [Example 441, 2-(2-Methyl-3-((cis-3-((2-(methylsulfonyl)ethyl)amino)cyclobutyl)amino)quinoxalin-5-yl)-6,7-dihydro-1H-pyrrolo[3,2-c]pyridin-4(5H)-one], the IC50 on Pim-2 was 0.0013 µM; in the test on KMS-12-BM cell lines (Homo sapiens, 110 min), above 40 µM; on Pim-1 it was 0.0007 µM.

For the compound `Cc1nc2cccc(-c3cc4c([nH]3)CCNC4=O)c2nc1N[C@H]1C[C@H](O)C1` [Example 442, 2-(3-((trans-3-Hydroxycyclobutyl)amino)-2-methylquinoxalin-5-yl)-6,7-dihydro-1H-pyrrolo[3,2-c]pyridin-4(5H)-one], the IC50 at Pim-2 was determined as 0.00173 µM; in the test with KMS-12-BM cell lines (Homo sapiens, 110 min), 0.527 µM; on Pim-1, 0.0034 µM.

On to `CC(=O)Nc1nc2c(-c3cc4c([nH]3)CCNC4=O)cccc2nc1C` [Example 445, N-(3-methyl-8-(4-oxo-4,5,6,7-tetrahydro-1H-pyrrolo[3,2-c]pyridin-2-yl)quinoxalin-2-yl)acetamide], for which the IC50 at Pim-2 is 0.0201 µM; with KMS-12-BM cell lines (Homo sapiens, 110 min), above 40 µM; at Pim-1 it was 0.0279 µM.

As for `Cc1nc2cccc(-c3cc4c([nH]3)CCNC4=O)c2nc1NC(=O)C1CC1` [Example 446, N-(3-methyl-8-(4-oxo-4,5,6,7-tetrahydro-1H-pyrrolo[3,2-c]pyridin-2-yl)quinoxalin-2-yl)cyclopropanecarboxamide], the IC50 on Pim-2 is 0.131 µM; in the test with KMS-12-BM cell lines (Homo sapiens, 110 min) it was above 40 µM; on Pim-1, 0.145 µM.

Turning to `Cc1nc2cccc(-c3cc4c([nH]3)CCNC4=O)c2nc1NC(=N)N` [Example 447, 1-(3-methyl-8-(4-oxo-4,5,6,7-tetrahydro-1H-pyrrolo[3,2-c]pyridin-2-yl)quinoxalin-2-yl)guanidine], the IC50 on Pim-2 was determined as 0.139 µM; with KMS-12-BM cell lines (Homo sapiens, 110 min) it was 2.63 µM; on Pim-1 it was 0.133 µM.
